Our source for the EC50 values is patent US6827926B2, “Metallotetrapyrrolic photosensitizing agents for use in photodynamic therapy” (Miravant Pharmaceuticals, Inc., priority 2001, dated 2004).

For the first experiment, the system named is V79 (Chinese Hamster Lung Fibroblasts) cells. The experiment in a line: In vitro cytotoxicity assay (light EC50, Alamar blue). In kind it is cell-based. The settings on record: Table 3 porphyrins, 24 h drug incubation, 532 nm, 1.25 J/cm^2, read-out: In Vitro EC50 Light. The protocol:
The in vitro biological evaluation of photosensitizers for their ability to photosensitize cells was performed using standard procedures. Using 5% FBS/DMEM phenol-free media, wells (180 μl/well) were plated with 5×10^4 V79 (Chinese Hamster Lung Fibroblasts) cells/ml into two 96 well plates. Plate 1 was light-treated and plate 2 served as a control. The plates were Incubated at 37° C., 5% CO2 for 3-5 hours. Standard solutions of the photosensitizers were dissolved in pre-filtered Dimethyl Sulfoxide (DMSO). Drug was diluted in 5% FBS DMEM phenol free medium. Final drug concentrations for light and dark experiments were 0.01, 0.1, 1.0, 3.0 and 5.0 μM. Twenty microliters of each concentration were added to six replicate wells to the light and dark plate. The plates were wrapped in aluminum foil to avoid photoactivation and mixed in a gyratory shaker for approximately 2 minutes. Both plates were incubated for 24 hours at 37° C., 5% CO2. After a 24 hour incubation, drug-containing media was aspirated from the plates. Each well was rinsed with 180 μl Hepes buffer salt solution (HBSS) then aspirated to remove the HBSS. 180 μl of fresh media were added (5% FBS/DMEM phenol-free) to each well. […] Plate 2 was not light treated. Immediately after light treatment, 20 μl Alamar blue was added to each well in plate 1. Alamar blue was added to plate 2 immediately after fresh media was added. The plates were mixed on a gyratory shaker for 5 min.
Both plates were incubated under dark conditions for 24 hours at 37° C., 5% CO2. After 24 hour incubation, the plates were read on a plate reader spectrophotometer (Spectra Max 250) at wavelengths 570 and 600 nm. and the percentage of cell survival recorded.
In the case of `CCC1=C(C)C2=[N+]3C1=Cc1c(C)c(CC)c4[n]1[Al-2]31([Cl])[n]3c(c(C)c(CCC(=O)NC)c3=CC3=[N+]1C(=C4)C(C)=C3CCC(=O)NC)=C2` [Example 61, Aluminum Chloride Mesoporphyrin N-methylamide], the EC50 turned out to be 2000 nM.

Take `CCOP(=O)(CCCC1=C(C)c2cc3cc(C)c(cc4nc(cc5[n-]c(cc1n2)c(CCCP(=O)(OCC)OCC)c5C)C(C)=C4)[n-]3)OCC.[Cl-].[Ga+3]` [Example 80, Gallium Chloride 3,7,12,17-tetramethylporphyrin-2,18-di((3′-diethylphosphono)propyl)]: the EC50 is 2000 nM.

For the compound `CCC1=C(C)C2=Cc3c(CC)c(C)c4[n]3[Ga-2]35([Cl])[n]6c(c(C)c(CCCOCCOC)c6=CC6=[N+]3C(=C4)C(C)=C6CCCOCCOC)=CC1=[N+]25` [M=Ga R1=Et R3=Me R4=Et R2=CH2O(CH2)2OCH3], the EC50 was 430 nM.

Consider `CCC1=C(C)C2=[N+]3C1=Cc1c(C)c(CC)c4[n]1[Ga-2]31([Cl])[n]3c(c(C)c(CCC(=O)NCCOCCO)c3=CC3=[N+]1C(=C4)C(C)=C3CCC(=O)NCCOCCO)=C2` [Example 16, Gallium Chloride Mesoporphyrin 2-ethoxyethanol amide], for which the EC50 was 2900 nM.

Consider `CCC1=C(C)C2=Cc3c(CC)c(C)c4[n]3[Ga-2]35([Cl])[n]6c(c(C)c(CCCOCCO)c6=CC6=[N+]3C(=C4)C(C)=C6CCCOCCO)=CC1=[N+]25` [M=Ga R1=Et R3=Me R4=Et R2=CH2O(CH2)2OH], for which the EC50 amounted to 500 nM.

For `CCC1=C(C)c2cc3[n-]c(cc4nc(cc5[n-]c(cc1n2)c(C)c5CC)C(C)=C4CCC(=O)NCCCO)c(CCC(=O)NCCCO)c3C.[Pt+2]` [Example 67, Platinum Mesoporphyrin di(3-hydroxypropylamide)], the EC50 came out at 100 nM.

Turning to `CNC(=O)CCC1=C(C)C2=Cc3cc(C)c4[n]3[Ga-2]35([Cl])[n]6c(c(C)c(CCC(=O)NC)c6=CC1=[N+]23)=CC1=[N+]5C(=C4)C=C1C` [Example 6, Gallium Chloride Deuteroporphyrin Methylamide], the EC50 worked out at 4050 nM.

As for `CC1=CC2=Cc3c(C)cc4[n]3[Ga-2]35([Cl])[n]6c(c(C)c(CCC(=O)NCCCO)c6=CC6=[N+]3C(=C4)C(C)=C6CCC(=O)NCCCO)=CC1=[N+]25` [Example 68, Gallium Chloride Deuteroporphyrin di(3-hydroxypropylamide)], the EC50 came out at 3000 nM.

The experiment is the same for the next values; noted with them: Table 4 azaporphyrins, 575 nm (Pt azaporphyrins 532 nm), 1.25 J/cm^2, read-out: In Vitro EC(50).
On to `CCC1=C(CC)C2=Nc3c(CC)c(CC)c4[n]3[Pt][n]3c(c(C)c(CCC(=O)NCCOCCO)c3=CC3=NC(=C4)C(C)=C3CCC(=O)NCCOCCO)=CC1=N2` [Example 101, Platinum 7,8,12,13-tetraethyl-12,17-dimethyl-10-azaporphyrin-2,18-di(propionic acid-2-ethoxyethanol amide)], for which the EC50 is 1500 nM.

As to `CCC1=C(CC)C2=[N+]3C1=Nc1c(CC)c(CC)c4[n]1[Ga-2]31([OH])[n]3c(c(C)c(CCC(=O)O)c3=CC3=[N+]1C(=C4)C(C)=C3CCC(=O)O)=C2.[Na+].[Na+]` [Example 88, Gallium Hydroxy 7,8,12,13-tetraethyl-12,17-dimethyl-10-azaporphyrin-2,18-di(propionic acid Sodium Salt)], the EC50 turned out to be 500 nM.

For the compound `CCC1=C(CC)C2=Nc3c(CC)c(CC)c4[n]3[Pt][n]3c(c(C)c(CCCO)c3=CC3=NC(=C4)C(C)=C3CCCO)=CC1=N2` [Example 105, Platinum 7,8,12,13-tetraethyl-12,17-dimethyl-10-azaporphyrin-2,18-di(3′-hyroxypropyl)], the EC50 worked out at 40 nM.

As to `CCC1=C(CC)c2nc1cc1[n-]c(cc3nc(cc4[n-]c(n2)c(CC)c4CC)C(C)=C3CCCOC)c(CCCOC)c1C.[Cl-].[Ga+3]` [Example 106, Gallium Chloride 7,8,12,13-tetraethyl-12,17-dimethyl-10-azaporphyrin-2,18-di(3′-methoxypropyl)], the EC50 is 1000 nM.

For `CCC1=C(CC)C2=[N+]3C1=Nc1c(CC)c(CC)c4[n]1[Pt-2]31[n]3c(c(C)c(CCC(=O)O)c3=CC3=[N+]1C(=C4)C(C)=C3CCC(=O)O)=C2.[K+].[K+]` (centres unmarked) [Example 86, Platinum 7,8,12,13-tetraethyl-12,17-dimethyl-10-azaporphyrin-2,18-di(propionic acid Potassium Salt)], the EC50 was found to be 400 nM.

With `CCC1=C(CC)C2=Nc3c(CC)c(CC)c4[n]3[Ga]([Cl])[n]3c(c(C)c(CCC(=O)NCCOC)c3=CC3=NC(=C4)C(C)=C3CCC(=O)NCCOC)=CC1=N2` [Example 95, Gallium Chloride 7,8,12,13-tetraethyl-12,17-dimethyl-10-azaporphyrin-2,18-di(propionic acid 2′-methoxyethyl amide)], the EC50 came out at 2000 nM.

Turning to “Gallium Chloride 7,8,12,13-tetraethyl-12,17-dimethyl-10-azaporphyrin-2,18-di(propionic acid-3′-hydroxypropyl amide) [Example 97]”, the EC50 turned out to be 1700 nM.

Take `CCC1=C(C)C2=NC1=Nc1c(C)c(CC)c3[n]1[Ga]([Cl])[n]1c(c(C)c(CCC(=O)NC)c1=CC1=NC(=C3)C(C)=C1CCC(=O)NC)=C2` [Example 94, Gallium Chloride 5-aza-mesoporphyrin IX Dimethyl Amide]: the EC50 is 520 nM.

As to `CCC1=C(CC)C2=Nc3c(CC)c(CC)c4[n]3[Ga]([Cl])[n]3c(c(C)c(CCC(=O)NCCOCCO)c3=CC3=NC(=C4)C(C)=C3CCC(=O)NCCOCCO)=CC1=N2` [Example 100, Gallium Chloride 7,8,12,13-tetraethyl-12,17-dimethyl-10-azaporphyrin-2,18-di(propionic acid-2-ethoxyethanol amide)], the EC50 came out at 1300 nM.

Take “Gallium Chloride 7,8,12,13-tetraethyl-12,17-dimethyl-10-azaporphyrin-2,18-di(propionic acid-2′-N,N-dimethylaminoethyl amide) [Example 102]”: the EC50 was 1200 nM.

In the case of `CCC1=C(CC)C2=Nc3c(CC)c(CC)c4[n]3[Pt][n]3c(c(C)c(CCC(=O)NCCCO)c3=CC3=NC(=C4)C(C)=C3CCC(=O)NCCCO)=CC1=N2` [Example 98, Platinum 7,8,12,13-tetraethyl-12,17-dimethyl-10-azaporphyrin-2,18-di(propionic acid-3′-hydroxypropyl amide amide)], the EC50 was found to be 2000 nM.

Take `CCC1=C(CC)C2=Nc3c(CC)c(CC)c4[n]3[In]([Cl])[n]3c(c(C)c(CCCO)c3=CC3=NC(=C4)C(C)=C3CCCO)=CC1=N2` [Example 104, Indium Chloride 7,8,12,13-tetraethyl-12,17-dimethyl-10-azaporphyrin-2,18-di(3′-hyroxypropyl)]: the EC50 came out at 30 nM.

Turning to `CCC1=C(C)c2nc1cc1[n-]c(cc3nc(cc4[n-]c(n2)c(C)c4CCC(=O)OC)C(CCC(=O)OC)=C3C)c(CC)c1C.[Cl-].[Ga+3]` [Example 20, Gallium Chloride 5-azamesoporphyrin IX Dimethyl Ester], the EC50 came out at 400 nM.

For `CCC1=C(CC)C2=[N+]3C1=Nc1c(CC)c(CC)c4[n]1[Pt-2]31[n]3c(c(C)c(CCC(=O)OC)c3=CC3=[N+]1C(=C4)C(C)=C3CCC(=O)OC)=C2` (centres unmarked) [Example 85, Platinum 7,8,12,13-tetraethyl-12,17-dimethyl-10-azaporphyrin-2,18-di(propionic acid methyl ester)], the EC50 stood at 4000 nM.

In the case of `COC(=O)CCC1=C(C)C2=Cc3c(C)c(C(C)OC)c4[n]3[Ga-2]35([Cl])[n]6c(c(C)c(CCC(=O)OC)c6=CC1=[N+]23)=CC1=[N+]5C(=N4)C(C)=C1C(C)OC` (mixture of isomers) [M=Ga R1,R3=Me R2,R4=CH(OMe)CH3 R=CO2Me], the EC50 was 1000 nM.

As to `CCC1=C(CC)C2=Nc3c(CC)c(CC)c4[n]3[Pt][n]3c(c(C)c(CCC(=O)NCCOC)c3=CC3=NC(=C4)C(C)=C3CCC(=O)NCCOC)=CC1=N2` [Example 96, Platinum 7,8,12,13-tetraethyl-12,17-dimethyl-10-azaporphyrin-2,18-di(propionic acid-2′-methoxyethyl amide)], the EC50 is 1900 nM.

The experiment is the same for the next values; noted with them: light EC50, metallodiazaporphyrins, read-out: In Vitro EC(50).
On to `CCC1=C(CC)C2=[N+]3C1=Nc1c(CC)c(CC)c4[n]1[Ga-2]31([Cl])[n]3c(c(CC)c(CC)c3=C2c2ccc(OC)cc2)=NC2=[N+]1C(=C4c1ccc(OC)cc1)C(CC)=C2CC` [M=Ga, R1=Et, R2=Et, R3=p-(C6H4)OCH3], for which the EC50 turned out to be 600 nM.

Consider “Gallium Chloride 3,7,14,17-tetramethyl-5,10-diazaporphyrin-2,8,12,18-tetra propionic acid [Example 117]”, for which the EC50 turned out to be 600 nM.

As for “Platinum 3,7,14,17-tetramethyl-5,10-diazaporphyrin-2,8,12,18-tetra(propionic acid methyl ester [Example 119]”, the EC50 came out at 350 nM.

Consider “Gallium Chloride 3,7,14,17-tetramethyl-5,10-diazaporphyrin-2,8,12,18-tetra (3′-hydroxypropyl) [Example 118]”, for which the EC50 was 300 nM.

Regarding “Platinum 3,7,14,17-tetramethyl-5,10-diazaporphyrin-2,8,12,18-tetra(3′-hydroxypropyl) [Example 120]”, the EC50 is 60 nM.
